Patent publication US20040048834A1, “Antitumoral compounds” (priority 2000, published 2004)
Where two headings read alike, the source gives them in different places.

Key:
Assay type in all cases: cell-based
[1] = test system: DU145; assay: Cytotoxicity of spisulosine analogs, DU145 (after Berjeron et al)
[2] = test system: HT29; assay: Cytotoxicity of spisulosine analogs, HT29 (after Berjeron et al)
[3] = test system: MEL28; assay: Cytotoxicity of spisulosine analogs, MEL28 (after Berjeron et al)
[4] = test system: A549; assay: Cytotoxicity of spisulosine analogs, A549 (after Berjeron et al)
[5] = test system: P388; assay: Cytotoxicity of spisulosine analogs, P388 (after Berjeron et al)
[6] = test system: HL-60; assay: Cytotoxicity MTS, leukemias/lymphomas, HL-60; settings: read-out: Cytotoxicity IC50 AML (acute promyelocytic leukemia) HL-60, 4-Parameter Curve Fit, NA = not active, read-out: Cytotoxicity IC50 ALL (Promyelocytic leukemia) HL-60
[7] = test system: NCI-H187; assay: Cytotoxicity MTS, solid tumors, SCL NCI-H187; settings: 4-Parameter Curve Fit, NA = not active
[8] = test system: MX-1; assay: Cytotoxicity MTS, solid tumors, Breast MX-1; settings: 4-Parameter Curve Fit, NA = not active
[9] = test system: 786-O; assay: Cytotoxicity MTS, solid tumors, Renal 786-O; settings: 4-Parameter Curve Fit, NA = not active
[10] = test system: Y-79; assay: Cytotoxicity MTS, solid tumors, Retinoblastoma Y-79; settings: 4-Parameter Curve Fit, NA = not active
[11] = test system: FADU; assay: Cytotoxicity MTS, solid tumors, Pharynx FADU; settings: 4-Parameter Curve Fit, NA = not active
[12] = test system: 5637; assay: Cytotoxicity MTS, solid tumors, Bladder 5637; settings: 4-Parameter Curve Fit, NA = not active
[13] = test system: A549; assay: Cytotoxicity MTS, solid tumors, NSCL A549; settings: 4-Parameter Curve Fit, NA = not active
[14] = test system: OSA-FH; assay: Cytotoxicity MTS, solid tumors, Osteosarcoma OSA-FH; settings: 4-Parameter Curve Fit, NA = not active
[15] = test system: RAMOS; assay: Cytotoxicity MTS, leukemias/lymphomas, RAMOS; settings: 4-Parameter Curve Fit, NA = not active, read-out: Cytotoxicity IC50 Lymphoma (Burkitts B cell) RAMOS
[16] = test system: H9; assay: Cytotoxicity MTS, leukemias/lymphomas, H9; settings: 4-Parameter Curve Fit, NA = not active, read-out: Cytotoxicity IC50 Lymphoma (T cell) H9
[17] = test system: Molt 3; assay: Cytotoxicity MTS, leukemias/lymphomas, Molt 3; settings: 4-Parameter Curve Fit, NA = not active, read-out: Cytotoxicity IC50 ALL (Acute lymphobalstic) Molt 3
[18] = DU145, methodology after Berjeron et al, NA=not active, read-out: Cytotoxicity IC50 DU145
[19] = HT29, methodology after Berjeron et al, NA=not active, read-out: Cytotoxicity IC50 HT29
[20] = MEL28, methodology after Berjeron et al, NA=not active, read-out: Cytotoxicity IC50 MEL28
[21] = A549, methodology after Berjeron et al, NA=not active, read-out: Cytotoxicity IC50 A549
[22] = P388, methodology after Berjeron et al, NA=not active, read-out: Cytotoxicity IC50 P388
[23] = Homo sapiens, DU-145, DU145, methodology after Berjeron et al, NA=not active, read-out: Cytotoxicity IC50 DU145
[24] = Homo sapiens, SK-MEL-28, MEL28, methodology after Berjeron et al, NA=not active, read-out: Cytotoxicity IC50 MEL28
[25] = Mus musculus, P388, P388, methodology after Berjeron et al, NA=not active, read-out: Cytotoxicity IC50 P388
[26] = Homo sapiens, HT-29, HT29, methodology after Berjeron et al, NA=not active, read-out: Cytotoxicity IC50 HT29
[27] = Homo sapiens, A549, A549, methodology after Berjeron et al, NA=not active, read-out: Cytotoxicity IC50 A549

With `CCCCCCCCCCCCCCC[C@@H](O)[C@H](C)N` [drawing 36, spisulosine-285, reference compound] the IC50 [1, 18] was 35 nM, the IC50 [2, 19] was 35 nM and the IC50 [3, 20] was 175 nM. It also gave an IC50 [4, 21] of 35 nM and an IC50 [5, 22] of 35 nM.
With `CCCCCCCCCCCCCCC[C@@H](O)[C@@H](N)CF` [drawing 133] the IC50 [6] was 1290 nM.
In the case of `CCCCCCCCCCCCCCCCCC[C@@H](O)[C@H](C)N` [drawing 52, (2S,3R)-2-Amino-3-heneicosanol], the IC50 [1, 23] is reported as 305 nM, the IC50 [2, 19] is reported as 305 nM and the IC50 [3, 24] is reported as 305 nM. The IC50 [4, 21] was 305 nM and the IC50 [5, 25] was 153 nM.
In the case of `CCCCCCCCCCCCCCCC(=O)[C@H](C)N` [drawing 118], the IC50 [7] is reported as 3550 nM, the IC50 [8] is reported as 2840 nM and the IC50 [9] is reported as 162 nM. The IC50 [10] was 12100 nM.
With `CCCCCCCCCCCCCC[C@@H](O)[C@H](C)N` [drawing 117] the IC50 [11] was 19600 nM, the IC50 [12] was 3260 nM and the IC50 [13] was 49000 nM.
`CCCCCCCCCCCCCCC[C@@H](OP(=O)(OC)OC)[C@H](C)N` [(2S,3R)-2-Amino-O-(dimethylphosphate)-3-octadecanol] gave an IC50 ([1]; Homo sapiens, DU-145, read-out: Cytotoxicity IC50 DU145) of 1270 nM, an IC50 ([2]; Homo sapiens, HT-29, read-out: Cytotoxicity IC50 HT29) of 1270 nM and an IC50 ([3]; Homo sapiens, SK-MEL-28, read-out: Cytotoxicity IC50 MEL28) of 1270 nM. The IC50 ([4]; Homo sapiens, A549, read-out: Cytotoxicity IC50 A549) was 1270 nM and the IC50 ([5]; Mus musculus, P388, read-out: Cytotoxicity IC50 P388) was 1270 nM.
`CCCCCCCCCCCCCCC[C@@H](O)[C@H](C)NC` was tested, and the IC50 [1, 18] was 334 nM, the IC50 [2, 19] was 334 nM and the IC50 [3, 20] was 334 nM. The IC50 [4, 21] was 334 nM and the IC50 [5, 22] was 334 nM.
Compound `CCCCCCCCCCCCCCCCC(=O)[C@H](C)N` [drawing 119] has an IC50 [8] of 14900 nM, an IC50 [14] of 14900 nM and an IC50 [12] of 29900 nM.
Work on `CCCCCCCCCCCCCCCCCC(=O)[C@H](C)N` [drawing 120] yielded an IC50 [11] of 14300 nM and an IC50 [13] of 20100 nM.
Work on `CCCCCCCCCCCCCCCC(=O)[C@H](C)N` [drawing 102] yielded an IC50 [1, 18] of 31.3 nM, an IC50 [2, 19] of 31.3 nM and an IC50 [3, 20] of 156 nM. It also gave an IC50 [4, 21] of 156 nM and an IC50 [5, 22] of 31.3 nM.
`CCCCCCCCCCCCCCC[C@@H](O)[C@@H](N)CF` [drawing 111] gave an IC50 [1, 18] of 329 nM, an IC50 [2, 19] of 32.9 nM and an IC50 [3, 20] of 329 nM. For the same compound, the IC50 [4, 21] was 32.9 nM and the IC50 [5, 22] was 32.9 nM.
With `CCCCCCCCCCCCCCCC(=O)C(N)CC` (stereo not drawn) the IC50 [15] was 1210 nM, the IC50 [16] was 5980 nM and the IC50 [17] was 581 nM.
Compound `CCCCCCCCCCCCCCC[C@H](O)[C@H](C)N` [(2S,3S)-2-Amino-3-octadecanol] has an IC50 [1, 23] of 350 nM, an IC50 [2, 26] of 350 nM and an IC50 [3, 24] of 350 nM. It also gave an IC50 [4, 27] of 350 nM and an IC50 [5, 25] of 350 nM.
`CCCCCCCCCCCCCC[C@@H](O)[C@H](C)N` [drawing 101] was tested, and the IC50 [1, 18] was 163 nM, the IC50 [2, 19] was 163 nM and the IC50 [3, 20] was 327 nM. It also gave an IC50 [4, 21] of 163 nM and an IC50 [5, 22] of 163 nM.
`CCCCCCCCCCCC[C@@H](O)[C@H](C)N` [(2S,3R)-2-Amino-3-pentadecanol] gave an IC50 [1, 23] of 411 nM, an IC50 [2, 26] of 411 nM and an IC50 [3, 24] of 2050 nM. For the same compound, the IC50 [4, 27] was 411 nM and the IC50 [5, 25] was 411 nM.
Work on `CCCCCCCCCCCCC[C@@H](O)[C@H](C)N` [drawing 41, (2S,3R)-2-Amino-3-hexadecanol] yielded an IC50 [1, 23] of 194 nM, an IC50 [2, 19] of 388 nM and an IC50 [3, 24] of 368 nM. For the same compound, the IC50 [4, 21] was 194 nM and the IC50 [5, 25] was 388 nM.
